Experimental data reported in patent US20220193241A1, “AGENT TARGETING DOUBLE-MEMBRANE ORGANELLE DNA” (CHIBA-PREFECTURE, priority 2019, published 2022).

Columns and labels:
HeEB1 cells = assay: mRNA expression of cell cycle arrest- and apoptosis-related genes by real-time PCR; type: cell-based, human; settings: 25 μM, 3 days
Method: (§1) In order to elucidate the mechanism of the cell proliferation suppressive effect by CCC020-TPP administration, expression analysis at the mRNA level was conducted by real-time PCR. The mtDNA mutation cell line (3243G High) and the normal cell line (HeEB1) were inoculated at 5×10^5 cells/dish and 1×10^5 cells/dish, respectively, to 6 cm dishes (Falcon), cultured for 24 hours, and then treated with CCC020-TPP (final concentration: 25 μM). After further culture for 3 days, RNA was extracted using RNeasy Plus Mini Kit (QIAGEN) according to the instruction manual. The yield of the RNA thus extracted was measured using NANO DROP 2000™ (Thermo Fisher Scientific). The reverse-transcription reaction of RNA was performed with 500 ng of RNA per sample using SuperScript VILO Master Mix (Invitrogen) to synthesize cDNA. The synthesized cDNA was diluted 5-fold with ultrapure water.
(§2) Real-time PCR employed Power SYBR Green Master Mix (Applied Biosystems), and cDNA sample preparation, PCR reaction and analysis were conducted. The primers and reaction conditions used are shown below.
(§3) The PCR reaction conditions were as follows.

3243G High cells [1] = assay: as above; type: cell-based, human; settings: 25 μM, 3 days
Method: as §1, §2, §3

3243G High cells [2] = assay: WST assay of cell proliferation with morphological observation; type: cell-based, human; settings: 5 days
Method: (§4) The proliferation suppressive effect of CCC020-TPP on cells having the mitochondrial A3243G mutation was evaluated by WST assay. Both a mitochondrial DNA mutated cell line and a normal cell line were inoculated at 1×10^3 cells/well to 96-well plates (Thermo Fisher Scientific), cultured for 24 hours, and then treated with CCC020-TPP (final concentration: 0, 0.1, 1, 10, 20, and 50 μM). The cells were further cultured for 5 days and then morphologically observed under optical microscope IX71 (OLYMPUS, Tokyo, Japan). Then, cell survival rates were calculated using Cell counting kit-8 (DOJINDO, Kumamoto, Japan) according to the instruction manual. DMSO (FUJIFILM Wako Pure Chemical Corp.) (final concentration: 1%) was added as a control to cells.
(§5) IC50 was calculated according to the following expression:
(§6) IC50=10(LOG(A/B)×(50−C)/(D−C)+LOG(B)) • A: higher concentration across the concentration at the cell survival rate of 50% • B: lower concentration across the concentration at the cell survival rate of 50% • C: inhibition rate at the lower concentration across the concentration at the cell survival rate of 50% • D: inhibition rate at the higher concentration across the concentration at the cell survival rate of 50%

3243G Low cells = assay: as above; type: cell-based, human; settings: 5 days
Method: as §4, §5, §6

HeEB1 (HeLamtHeLa) cells = assay: as above; type: cell-based, human; settings: 5 days
Method: as §4, §5, §6

3243G High cells [3] = assay: Cell death induction: DAPI nuclear staining and cleaved caspase-3 immunostaining; type: cell-based, human; settings: 25 μM, 5 days
Method: In order to confirm that the suppression of cell proliferation by CCC020-TPP was the induction of cell death, the 3243G High cells were inoculated at 5×10^4 cells/dish to a 35 mm glass base dish (IWAKI), cultured for 24 hours, and then treated with CCC020-TPP (final concentration: 25 μM). The cells thus supplemented with CCC020-TPP were further cultured for 5 days and fixed with 4% PFA/PBS at room temperature for 30 minutes. The cells thus fixed were washed with PBS and blocked with TBST containing 5% normal goat serum for 1 hour. After the completion of blocking, the cells were reacted for 1 hour with a primary antibody diluted with TBST, i.e., a rabbit anti-cleaved caspase-3 antibody (for the cells treated for 5 days: Cell Signaling Technology, Inc.) diluted at 1:200.

C33A = assay: WST cell proliferation assay of library compounds; type: cell-based; settings: Homo sapiens, C-33-A, 120 h, 5 days
Method: (§7) This compound can recognize the T4216C mutation of mitochondrial ND1 gene, and a uterine cervical cancer cell line C33A has this mutation. Cell proliferation assay with wild-type HeLa cells, which is also a uterine cervical cancer cell line, was conducted in the same manner as in Example 1. 1000 cells were inoculated to a 96-well plate, and CCC1283-TPP was administered at 0.5, 1, 5, 10, and 20 μM. 5 days later, WST assay was conducted.
as §7, with “CCCh531-TPP” for “CCC1283-TPP”
(§8) Compound CCCh560-TPP with a decacyclic structure targeting the A8860G polymorphism of mitochondrial gene ATP6 found in human populations, not acquired mitochondrial mutations in somatic cells, was studied for whether the suppression of cell proliferation was also found by 5-day treatment with the compound for the mitochondrial DNA polymorphism in cancer cell lines C33A, HeLa, Siha, Caski, and ME180 having this polymorphism in homoplasmy and human nontumor skin-derived fibroblast HDF cells. For this purpose, cell proliferation assay was conducted in the same manner as in Example 1. 1000 cells were inoculated to a 96-well plate, and CCCh560-TPP was administered at 0.5, 1, 5, 10, and 20 μM. 5 days later, WST assay was conducted.

HeLa cells = assay: WST cell proliferation assay of library compounds; type: cell-based; settings: Homo sapiens, 120 h, 5 days
Method: as §7
as §7, with “CCCh531-TPP” for “CCC1283-TPP”
as §8

Siha = assay: WST cell proliferation assay of library compounds; type: cell-based; settings: Homo sapiens, 120 h, 5 days
Excerpt: as §8

[4] = system: HDF (human skin fibroblasts); assay: WST cell proliferation assay of library compounds; type: cell-based; settings: 5 days
Excerpt: as §8

ME180 = assay: WST cell proliferation assay of library compounds; type: cell-based; settings: Homo sapiens, ME-180, 120 h; ME180, 5 days
Excerpt: as §8

Caski = assay: WST cell proliferation assay of library compounds; type: cell-based; settings: Homo sapiens, Ca-Ski, 120 h, 5 days
Excerpt: as §8

Row | Compound | expression of P21, BAX and MCL1 (HeEB1 cells) | expression of antiapoptosis-related gene MCL1 (3243G High cells [1]) | expression of cell cycle arrest-related gene P21 (3243G High cells [1]) | expression of proapoptosis-related gene BAX (3243G High cells [1]) | suppression of cell proliferation (WST) (3243G High cells [2]; 0.1-50 μM) | cell morphology under optical microscope (3243G High cells [2]) | suppression of cell proliferation (WST) (3243G Low cells; 0.1-50 μM) | cell morphology under optical microscope (3243G Low cells) | suppression of cell proliferation (WST) (HeEB1 (HeLamtHeLa) cells; 0.1-50 μM) | cell morphology under optical microscope (HeEB1 (HeLamtHeLa) cells) | cleaved caspase-3-positive cells (apoptosis) (3243G High cells [3]) | cells with fragmentation of the nucleus (3243G High cells [3]; DAPI) | IC50 (C33A) [µM] | IC50 (HeLa cells) [µM] | IC50 (Siha) [µM] | suppression of proliferation (WST) ([4]; 0.5-20 μM) | IC50 (WST) [4] | IC50 (ME180) [µM] | IC50 (Caski) [µM]
1 | CN(C)CCCNC(=O)CCNC(=O)c1cc(NC(=O)c2cc(NC(=O)CCNC(=O)c3nc(NC(=O)c4nc(NC(=O)c5nc(NC(=O)CCNC(=O)CCCC[P+](c6ccccc6)(c6ccccc6)c6ccccc6)cn5C)cn4C)cn3C)cn2C)cn1C [CCC020-TPP] | no change in expression was found | significantly decreased | significantly increased | significantly increased | cell proliferation suppressive effect was markedly found | cells that seemed to undergo apoptosis were markedly observed | cell proliferation suppressive effect was markedly found | no morphological change in cells was found | cell proliferation was not suppressed | no morphological change in cells was found | approximately half | approximately 60% |  |  |  |  |  |  | 
2 | CN(C)CCCNC(=O)CCNC(=O)c1cc(NC(=O)c2cc(NC(=O)CCNC(=O)c3nc(NC(=O)c4cc(NC(=O)c5nc(NC(=O)CCCNC(=O)c6cc(NC(=O)c7nc(NC(=O)CCNC(=O)c8nc(NC(=O)c9nc(NC(=O)c%10nc(NC(=O)CCNC(=O)CCCC[P+](c%11ccccc%11)(c%11ccccc%11)c%11ccccc%11)cn%10C)cn9C)cn8C)cn7C)cn6C)cn5C)cn4C)cn3C)cn2C)cn1C [CCCh560-TPP] |  |  |  |  |  |  |  |  |  |  |  |  | 1.65 | 7.75 | 12.6 | tendency to suppress the proliferation | incalculable | 3.24 | 5.5
